Data reported in the NIST ThermoML archive (doi:10.1016/j.jct.2010.03.021).
Several values for one entry are separate records, joined by “and”; a condition that tells them apart may be missing. Identical values can stand only once.

Columns and labels:
[1] = Crystal, Calculated from knudsen effusion weight loss
[2] = molar enthalpy of vaporization or sublimation; details: Crystal

O=[N+]([O-])c1ccc(-n2cccc2)cc1 [1-(4-nitrophenyl)pyrrole]
[1]
Details | vapor or sublimation pressure
344.09 K | 9.59e-05 kPa and 9.52e-05 kPa and 9.41e-05 kPa
346.13 K | 0.000118 kPa and 0.000117 kPa
348.17 K | 0.000145 kPa and 0.000144 kPa
350.09 K | 0.000179 kPa and 0.000182 kPa and 0.000181 kPa
352.13 K | 0.000219 kPa and 0.00022 kPa and 0.000227 kPa
354.18 K | 0.00027 kPa and 0.000272 kPa and 0.000284 kPa
356.13 K | 0.000344 kPa and 0.000343 kPa and 0.00034 kPa
358.2 K | 0.00043 kPa and 0.000417 kPa and 0.000427 kPa
360.16 K | 0.000505 kPa and 0.000525 kPa
362.07 K | 0.000642 kPa and 0.000638 kPa and 0.000641 kPa
364.09 K | 0.000766 kPa and 0.000762 kPa and 0.000783 kPa
366.16 K | 0.000934 kPa and 0.000933 kPa

[2]
Details | molar enthalpy [kcal/mol]
298.15 K, Ebulliometric method (Recirculating still) | 26.86
355.13 K, Clausius-Clapeyron Equation | 26.2

O=[N+]([O-])c1ccccc1-n1cccc1 [1-(2-nitrophenyl)pyrrole]
[1]
Details | vapor or sublimation pressure
306.11 K | 0.000106 kPa and 0.000108 kPa and 0.000109 kPa
308.2 K | 0.000141 kPa and 0.000138 kPa and 0.000139 kPa
310.18 K | 0.000181 kPa and 0.000173 kPa and 0.000174 kPa
312.12 K | 0.000226 kPa and 0.000227 kPa and 0.000228 kPa
314.19 K | 0.000291 kPa and 0.000284 kPa and 0.00029 kPa
316.18 K | 0.000368 kPa and 0.000355 kPa and 0.000358 kPa
318.11 K | 0.000464 kPa and 0.000466 kPa
320.18 K | 0.0006 kPa and 0.000587 kPa and 0.000594 kPa
322.18 K | 0.000764 kPa and 0.000733 kPa and 0.00074 kPa
324.12 K | 0.000955 kPa and 0.000965 kPa and 0.000963 kPa
326.2 K | 0.001224 kPa and 0.001209 kPa and 0.001238 kPa

[2], Clausius-Clapeyron Equation
Details | molar enthalpy [kcal/mol]
298.15 K | 24.21
316.16 K | 24
